Data: publication PMC5613062 (Investigational New Drugs, 2017)

Assays:
[1] = set-up: method as in earlier work; conditions: AZD6244-related material, rat and mouse; ref IB; cited from earlier work
[2] = Phase I safety/tolerability, DLT and MTD: selumetinib + erlotinib 100 mg orally QD in patients with advanced solid tumors
[3] = set-up: method as in earlier work; conditions: ref IB; cited from earlier work
[4] = set-up: method as in earlier work; conditions: rat; ref IB; cited from earlier work
[5] = system: Calu-6 human non-small cell lung cancer xenograft; set-up: method as in earlier work; conditions: AZD6244 3 mg/kg BD; AZD2171 […] QD; ref IB; cited from earlier work

Cn1cnc2c(F)c(Nc3ccc(Br)cc3Cl)c(C(=O)NOCCO)cc21 [Selumetinib]
binding to melanin [1]: no evidence of binding to melanin
penetration into the CNS [1]: minimal
protocol-defined MTD of selumetinib plus erlotinib (part A) ([2]; part A dose escalation, later not tolerated in part B): 50 mg BID
selumetinib dose recommended for future phase II studies ([2]; plus erlotinib 100 mg QD): 100 mg QD
MTD of selumetinib in combination with erlotinib ([2]; with erlotinib 100 mg QD): 100 mg QD
mutagenic or clastogenic potential in vitro [3]: no evidence of mutagenic or clastogenic potential
Protein binding [4]: 99.7%
Tumor growth inhibition as a % of control [5]: 48.8 % of control
